We go through five compounds from publication PMC12293736, “Discovery of N-(6-Methoxypyridin-3-yl)quinoline-2-amine Derivatives for Imaging Aggregated α-Synuclein in Parkinson’s Disease with Positron Emission Tomography” (Cells, 2025).

“And” between values parts separate entries of the source, which are not always exact repeats. Equal values may be shown once. “Also recorded” adds a separate entry of the source. Read-outs that look alike come from different tables or passages of the source.

The target in series [1] is T1, LBD-amplified fibrils (α-synuclein) (Homo sapiens, UniProt P37840).
T1 construct: made in house
The series is described as follows: homologous competitive binding assay of radiotracers, LBD-amplified fibrils. The procedure: (§1) The binding affinity determination (Kd) was performed using homologous competitive binding assays of radiotracers with recombinant α-synuclein fibrils, LBD-amplified fibrils, PD tissues, and AD brain tissue homogenates. The brain tissue from PD and AD cases was obtained from the Banner Sun Health Research Institute Brain and Body Donation Program of Sun City, Arizona.
(§2) These direct binding assays used a fixed concentration of either recombinant α-synuclein fibrils, LBD-amplified fibrils, PD, AD tissue, or a radioligand ([^11C]7f, [^18F]7j, [^11C]8i and [^125I]8i, [^3H]8i) and varying concentration ranges of the corresponding homologous non-radiolabeled standard reference compound. In brief, various concentrations of corresponding cold compounds were diluted in 30 mM of Tris-HCl at pH 7.4, with 0.1% BSA. The direct binding assay was carried out by mixing (1) recombinant α-synuclein fibrils, LBD-amplified fibrils, PD, or AD tissue; (2) a radioligand ([^11C]7f or [^18F]7j); and (3) various concentrations of corresponding cold compounds, with incubation at 37 °C for 1 h for [^18F]7j and 30 min for [^11C]7f. After incubation, the bound and free radioligands were separated via vacuum filtration through 1.0 µm glass fiber filters in 96-well filter plates (MilliporeSigma, Burlington, MA, USA), followed by three 200 µL washes with ice-cold assay buffer. The filters containing the bound ligand were mixed with 150 µL of Optiphase Supermix scintillation cocktail (PerkinElmer) and counted immediately. All data points were obtained in triplicate. The dissociation constant (Kd) and the maximal number of binding site (Bmax) values were determined by fitting the data to the following equation: bound = (Bmax × [radioligand])/([radioligand] + [unlabeled compound] + Kd) + bottom. This was achieving via non-linear regression using GraphPad Prism software (version 4.0), where (bottom) is the non-specific binding and the [radioligand], [unlabeled compound], and Kd are expressed in nM. The synthesis of the tested compounds is described in the Supporting Information. […]
(§3) c) Direct radioactive competitive binding assay of radiotracers [11C]7f, [ 18 F]7j, [ 11C]8i and [ 125 I]8i and [ 3H]8i Affinity determination (Kd) using direct radioactive competitive binding assay with recombinant α-synuclein fibrils, Banner PD tissues, AD brain tissue homogenates. Brain tissue from PD and AD cases was obtained from the Banner Sun Health Research Institute Brain and Body Donation Program of Sun City, Arizona. […]
(§4) These direct binding assays used a fixed concentration of either α-synuclein fibrils or AD tissue and the radioligand ([11C]7f, [ 18F]7j, [ 11C]8i and [ 125 I]8i, [ 3H]8i ) and varying concentration ranges of corresponding homologous non-radiolabeled standard reference compound. In brief, the standard homologous reference compound was diluted in 30 mM Tris-HCl pH 7.4, 0.1% BSA. Reactions were incubated at 37 °C for 1 h before quantifying bound radioligand.
(§5) Bound and free radioligands were separated by vacuum filtration through 1.0 µm glass fiber filters in 96-well filter plates (Millipore), followed by three 200 µL washes with ice-cold assay buffer. Filtrates containing the bound ligand were mixed with 150 µL of Optiphase Supermix scintillation cocktail (PerkinElmer) and counted immediately. All data points were performed in triplicate. The dissociation constant (Kd) and the maximal number of binding sites (Bmax) values were determined by fitting the data to the equation. […]

A further series addresses T2, PD brain tissues (Homo sapiens, UniProt P37840).
T2 construct: The brain tissue from PD and AD cases was obtained from the Banner Sun Health Research Institute Brain and Body Donation Program; tissue Banner Sun Health Research Institute Brain and Body Donation Program; host or cells: human PD post mortem brain tissue
Description: homologous competitive binding assay of radiotracers, PD tissue. As to conditions: for binding to PD tissues versus AD and control brain tissues: in words. The procedure: as §1, §2, §3, §4
as §5, with “equation. Bound = (Bmax*[Radioligand])/([Radioligand] + [Unlabeled compound] + Kd) + Bottom by nonlinear regression using GraphPad Prism software (version 4.0), where (Bottom) is nonspecific binding and [Radioligand], [Unlabeled compound], and Kd is expressed in nM” for “equation.”
Production of [ 11C]CH3I followed the reported method. Briefly, [ 11C]CH3I was produced on-site from [ 11C]CO2 using a GE PETtrace MeI Microlab. Up to 1.4 Ci of [ 11C]carbon dioxide was produced from the JSW BC-16/8 cyclotron […]

Series [2] has as its target AD brain tissue homogenates. The series is described as follows: homologous competitive binding assay of radiotracers, AD tissue. As to conditions: average, NB = no binding. The arrangement: species or system human. The procedure:
as §1
These direct binding assays used a fixed concentration of either recombinant α-synuclein fibrils, LBD-amplified fibrils, PD, AD tissue, or a radioligand ([^11C]7f, [^18F]7j, [^11C]8i and [^125I]8i, [^3H]8i) and varying concentration ranges of the corresponding homologous non-radiolabeled standard reference compound. […] The filters containing the bound ligand were mixed with 150 µL of Optiphase Supermix scintillation cocktail (PerkinElmer) and counted immediately. […] The dissociation constant (Kd) and the maximal number of binding site (Bmax) values were determined by fitting the data to the following equation: bound = (Bmax × [radioligand])/([radioligand] + [unlabeled compound] + Kd) + bottom. […]
Bound and free radioligands were separated by vacuum filtration through 1.0 µm glass fiber filters in 96-well filter plates (Millipore), followed by three 200 µL washes with ice-cold assay buffer. […] The dissociation constant (Kd) and the maximal number of binding sites (Bmax) values were determined by fitting the data to the equation. […]

Series [3] is described as follows: PET brain imaging studies in non-human primates. As to conditions: for blood–brain barrier penetration / brain washout kinetics: in words. Type of series: in vivo, cynomolgus macaques. The procedure: All animal experiments were conducted under a research protocol approved by the Washington University Institutional Animal Care and Use Committee (IACUC). The NHP study was conducted in the NHP microPET facility at the Washington University School of Medicine in St. Louis. Three adults male cynomolgus macaques (9.73 ± 0.71 kg) were used in this study. Each animal was fasted for 12 h prior to the PET scans. Anesthesia was induced with an intramuscular injection of ketamine (10–20 mg kg^−1) and glycopyrrolate (0.013–0.017 mg kg^−1) to reduce salivary gland and respiration secretions. The animal was intubated, and anesthesia was maintained at 40–50% N2O and 1.4–2.0% isoflurane/oxygen throughout the procedure. A percutaneous venous catheter was used for the radiotracer injection. During the PET scanning session, the head was positioned supine with the brain in the center of the field of view. The PET scans were performed with a microPET Focus 220 scanner (Concorde/CTI/Siemens Microsystems, Knoxville, TN, USA). A 10 min transmission scan was performed to check the positioning; once confirmed, a 45 min transmission scan was obtained for attenuation correction. Subsequently, a 2 h dynamic emission scan was acquired after the administration of 365.44 ± 26.69 MBq of [^11C]7f, [^11C]8i, or [^18F]7j via the venous catheter. The PET data were collected from 0 to 120 min with the following timeframes: 3 × 1 min, 4 × 2 min, 3 × 3 min, and […]. The PET images were reconstructed using a filtered back projection method into a volume size of 128 × 128 × 95 and a voxel size of 1.85 × 1.85 × 0.796 mm^3, with all corrections (scatter, decay, random, normalization, etc.) applied. The dynamic PET images were motion-corrected and then co-registered to previous acquired structural MPRAGE MR images. The INIA19 primate brain and atlas (https://www.nitrc.org/projects/inia19/, accessed on 2 August 2023) were then co-registered to the MR images, so as to obtain the regional time−activity curves (TACs) in the regions of interests (ROIs). The radioactivity uptake was normalized using the body weight and the injected dose to obtain the standardized uptake values (SUVs). A voxel-wise reference Logan plot was performed using the cerebellum as the reference region to obtain the distribution volume ratio (DVR), with a linear time range of 30 min to 120 min:(1) ∫0t Ctτdτ/Ctt=DVR∫0t Crτdτ/Ctt+β
Here, Cr(t) is the regional time activity curve (TAC) of the reference tissue, Ct(t) is the pixelwise time activity curves of the target tissue tracer concentration measured via PET, and DVR is the distribution volume ratio of the target to the reference tissue.
The image processing was performed using MIAKAT in MATLAB (R2023a, The MathWorks, Inc., Natick, MA, USA).

Series [4] concerns the target T3, recombinant α-synuclein fibrils (Homo sapiens, UniProt P37840). The series is described as follows: photo-crosslinking of α-synuclein fibrils, digestion and LC-MS/MS. The note with it: UV irradiation, GluC or trypsin digest. From the text: To gain additional insight into the binding site of these molecules, a photoaffinity variant (TZ-CLX) was synthesized containing a diazirine as a photo-crosslinking motif. Closely resembling the 6-substituted lead compounds 7j and 8i, this compound covalently inserts into C-H bonds on nearby residues in the α-synuclein fibril binding site upon irradiation with ultraviolet (UV) light. Using established procedures, the crosslinked fibrils can then be disaggregated, digested using either GluC or trypsin, and analyzed via LC-MS/MS to ascertain residue-level binding information. […] Minor crosslinks were also identified in the N-terminal binding site, primarily via trypsin digestion and corresponding to the peptide EGVVAAAEK (residues 13–21, proximal to site 2, Figure 3). […]
Bottom-up LC-MS/MS Analysis. Peptide mixtures resulting from labeling and digestion were resolubilized in 25 µl of water with 0.1%TFA and analyzed by a Q-Exactive HF mass spectromet er (Thermo Fisher Scientific; Waltham, MA) coupled to a Dionex Ultimate 3000 UHPLC system (Thermo Fisher Scientific; Waltham, MA) equipped with an in- house made 15 ௗcm long fused silica capillary column (75 μm ID), packed with reversed phase Repro-Sil Pure C18-AQ 2.4 μm resin (Dr. Maisch GmbH, Ammerbuch, Germany). […]

Series [5] concerns the target T3, recombinant α-synuclein fibrils. The series is described as follows: radioactive competitive binding assay with [^3H]BF2846 (Tables 1 and 2: or [^18F]7j with LBD-amplified fibrils). The note with it: running text b71; fibril type and assay not stated.
[6] abbreviates: Figure 5, single representative curve, read-out: Kd, LBD amplified fibrils, representative assay.
Where [7] appears, read: homologous competitive binding, average values for 7f (n = 3) and 7j (n = 15), read-out: Kd, LBD-amplified fibrils.
Where [8] appears, read: homologous competitive binding, average (n = 4 for 7j), NB = no binding, read-out: Kd, PD tissue.

A word on the Kd: it is the concentration at which binding is half-saturated. Consider `COc1ccc(Nc2ccc3cc(OCC[18F])ccc3n2)cn1` [[^18F]7j], for which the Kd stood at 26 nM in series [1] (setting [6]); 21 ± 8.7 nM in series [1] (setting [7]); 3.6 nM at PD brain tissues (Figure 5, single representative curve, read-out: Kd, PD tissue, representative assay); 19.5 ± 15.5 nM at PD brain tissues (setting [8]). In addition, the “Kd, AD tissue” value in series [2] is given as “no binding”. In addition, the “blood–brain barrier penetration” value in series [3] was “penetrated the BBB well”. In addition, the brain washout kinetics entry in series [3] is reported as “rapid washout from all brain regions”. The “time of peak brain uptake post-injection” value in series [3] (n = 1 per tracer) came out at 3 min.
With `COc1ccc(Nc2ccc3cc(O[11CH3])ccc3n2)cn1` [[^11C]7f], the values for the Kd in series [1] (setting [6]), in series [1] (setting [7]) and in series [2] were 11 nM, 15.5 ± 4.8 nM and 62.7 ± 68.8 nM, respectively. For the same compound, the “blood–brain barrier penetration” value in series [3] is “penetrated the BBB well”. For the same compound, in series [3], the brain washout kinetics result is reported as “rapid washout from all brain regions”. In series [3] (n = 1 per tracer), the “time of peak brain uptake post-injection” value stood at 3 min.
Turning to `C#CCCC1(CCOc2ccc3nc(Nc4ccc(OC)nc4)ccc3c2)N=N1` [TZ-CLX, 6-(2-(3-(But-3-yn-1-yl)-3H-diazirin-3-yl)ethoxy)-N-(6-methoxypyridin-3-yl)quinolin-2-amine], in series [4], the “binding site on α-synuclein fibrils by photo-crosslinking” value was “significant selectivity for the C-terminal binding sites of α-synuclein fibrils”.
In the case of `[11CH3]Oc1ccc(Nc2ccc3cc(OC/C=C/I)ccc3n2)cn1` [[^11C]8i], the “binding to PD tissues versus AD and control brain tissues” value on PD brain tissues is “potent selectivity for PD brain tissues over AD and control tissues”. For the same compound, the “initial brain uptake, standardized uptake value (SUV)” value in series [3] (3 min post-injection, n = 1 per tracer) was “about 3 g/mL”. Moreover, in series [3], the “blood–brain barrier penetration” value is given as “penetrated the BBB very well” and the brain washout kinetics result is reported as “slow”. Besides, the “brain uptake ratio from 3 min to 120 min” value in series [3] (washout kinetics, n = 1) is reported as “about 1.5”. Moreover, the Kd in series [5] worked out at 5 nM.
Consider `COc1ccc(Nc2ccc3cc(OC/C=C/[125I])ccc3n2)cn1` [[^125I]8i], for which the Kd in series [1] (setting [7]) was 5 nM and 4.8 nM; on PD brain tissues (setting [8]), 5 nM; at PD brain tissues (two-site binding, read-out: Kd, high affinity binding site, PD tissues), 0.61 nM. Besides, the “binding to PD tissues versus AD and control brain tissues” value at PD brain tissues is “selective for PD tissues versus AD or control tissues; also recorded: very potent for PD tissues but not for control and AD brain tissues”. In addition, on PD brain tissues (two-site binding), the “Bmax, high affinity binding site, PD tissues” value is given as 50 nM. On PD brain tissues (two-site binding), the “Bmax, low affinity binding site, PD tissues” value was 12 µM.
